According to patent US8314071B2, “Bioactive molecules from co-cultivation of microbes” (Massachusetts Institute of Technology, priority 2007, dated 2012):

Experiments:
[1] = tested on: Streptomyces padanus; test: paper disk diffusion, Streptomyces padanus; type: cell-based; settings: paper disk (6 mm in diameter) containing 30 μg on agar plate
Procedure: (§1) No evidence of activity against eukaryotes, such as S. cerevisiae or cytotoxicity against human leukemia (HL-60) was observed.
(§2) Antimicrobial activity was measured by the conventional paper disk diffusion method. See Bauer, A. W.; Kirby, W. M.; Sherris, J. C.; Turck, M. Am. J. Clin. Pathol. 1966, 45, 493-96; and Hachem, C. Y.; Clarridge, J. E.; Reddy, R.; Flamm, R.; Evans, D. G.; Tanaka, S. K.; Graham, D. Y. Diagn. Microbiol. Infect. Dis. 1996, 24, 37-41. The bioactive fractions during the purification procedures were confirmed by activity against Streptomyces padanus, while pure rhodostreptomycins were tested for activity against S. padanus, Escherichia coli, Staphylococcus aureus, Bacillus subtilis, Helicobacter pylori and Saccharomyces cerevisiae. In this method, each paper disk (Whatman AA Discs, 6 mm) containing the extract or 30 μg of the pure compounds was placed directly onto an agar plate that had been freshly inoculated with a lawn of the test organism. The activity was estimated by measuring the diameters of the inhibition zones.

[2] = tested on: Escherichia coli; test: paper disk diffusion, Escherichia coli; type: cell-based; settings: paper disk (6 mm in diameter) containing 30 μg on agar plate
Procedure: as §1, §2

[3] = tested on: Staphylococcus aureus; test: paper disk diffusion, Staphylococcus aureus; type: cell-based; settings: paper disk (6 mm in diameter) containing 30 μg on agar plate
Procedure: as §1, §2

[4] = tested on: Bacillus subtilis; test: paper disk diffusion, Bacillus subtilis; type: cell-based; settings: paper disk (6 mm in diameter) containing 30 μg on agar plate
Procedure: as §1, §2

[5] = tested on: Helicobacter pylori; test: paper disk diffusion, Helicobacter pylori; type: cell-based; settings: paper disk (6 mm in diameter) containing 30 μg on agar plate
Procedure: as §1, §2

[6] = tested on: Saccharomyces cerevisiae; test: paper disk diffusion, Saccharomyces cerevisiae; type: cell-based; settings: paper disk (6 mm in diameter) containing 30 μg on agar plate
Procedure: as §1, §2

[7] = solubility in solvents; type: physicochemical
[8] = tested on: Gram-negative and Gram-positive bacteria; test: conventional disk assays on microbial lawns, overall; type: cell-based; settings: rhodostreptomycin B (2) compared with rhodostreptomycin A (1)
Procedure: as §1, §2

solubility in chloroform or n-hexane [7]	solubility in water [7]	Compound	diameter of inhibition zone [1]	diameter of inhibition zone [2]	diameter of inhibition zone [3]	diameter of inhibition zone [4]	diameter of inhibition zone [5]	diameter of inhibition zone [6]	activity relative to the other isomer [8]
not in chloroform or n-hexane	highly soluble in water	CN[C@@H]1[C@H](O[C@H]2[C@H](O[C@H]3[C@H](O)[C@@H](O)[C@H](N=C(N)N)[C@@H](O)[C@@H]3N=C(N)N)O[C@H](C)[C@@]23OC(=O)N[C@H]3O)O[C@@H](CO)[C@H](O)[C@H]1O [Rhodostreptomycin 1, Rhodostreptomycin A]	15 mm	8 mm	9 mm	8 mm	10 mm	0 mm	
not in chloroform or n-hexane	highly soluble in water	CN[C@@H]1[C@H](O[C@H]2[C@H](O[C@H]3[C@H](O)[C@@H](O)[C@H](N=C(N)N)[C@@H](O)[C@@H]3N=C(N)N)O[C@H](C)[C@@]23OC(=O)N[C@@H]3O)O[C@@H](CO)[C@H](O)[C@H]1O [Rhodostreptomycin 2, Rhodostreptomycin B]	18 mm	12 mm	14 mm	14 mm	18 mm	0 mm	more potent
